Calls of active or inactive are those of the source. The calls are words filed in the database; no cut-off is given here.

For test [1], the system named is Mus musculus. Kind of test: Anti-MASH activity in HFD-fed CCl4-treated male C57BL/6 mouse assessed as reduction in alpha-SMA in liver at 150 mg/kg, po qd treated for 4 weeks by IHC analysis. It counts as functional, organism-based.
In test [2] the test system is Mus musculus. The experiment in a line: Anti-MASH activity in HFD-fed CCl4-treated male C57BL/6 mouse assessed as reduction in serum HDL cholesterol level at 150 mg/kg, po qd treated for 4 weeks. It counts as functional, organism-based.
The test system of test [3] is Mus musculus. Kind of test: Anti-MASH activity in HFD-fed CCl4-treated male C57BL/6 mouse assessed as reversal of light color of liver at 150 mg/kg, po qd treated for 4 weeks. It counts as functional, organism-based.
The subject of test [4] is Mus musculus. Kind of test: Anti-MASH activity in HFD-fed CCl4-treated male C57BL/6 mouse assessed as reduction in serum LDL cholesterol level at 150 mg/kg, po qd treated for 4 weeks. It counts as functional, organism-based.
A short description of test [5]: Inhibition of lipid peroxidation in egg yolk (unknown origin) at 100 uM preheated with compound and FeSO4 for 15 mins followed by TCA/TBA addition measured after 15 mins by absorbance based assay relative to control. It counts as functional, tissue-based. On the set-up: scale not given: the % may be the effect or the level left. The following applies: time 30.0 min.

For test [6], the system named is Mus musculus. Kind of test: Anti-MASH activity in HFD-fed CCl4-treated male C57BL/6 mouse assessed as decrease in liver MDA level at 150 mg/kg, po qd treated for 4 weeks. It counts as functional, organism-based.
For test [7], the system named is Hepatocyte. Kind of test: Anti-MASH activity in palmitate/oleate-stimulated mouse primary hepatocytes assessed as reduction in FASN mRNA level by q-PCR analysis. It counts as functional, cell-based.
Test [8] deals with Hepatocyte. Kind of test: Anti-MASH activity in CCl4-stimulated mouse primary hepatocytes assessed as reduction in ROS level at 2.5 to 10 uM by DCFH-DA staining assay. It counts as functional, cell-based. The following applies: dose 2.5-10 µM.
The subject of the next test is Rattus norvegicus. The experiment in a line: Hepatoprotective activity in male Sprague-Dawley rat model of CCl4-induced ALI assessed as restoration of serum AST level at 100 mg/kg, IG qd pretreated with compound for 7 days followed by CCl4 administration after 2 hrs post-compound treatment measured after 16 hrs post-CCl4 injection. It counts as functional, organism-based. The following applies: time 186.0 hrs.

Regarding `COc1cc([C@@H]2Oc3cc([C@H]4Oc5cc(O)cc(O)c5C(=O)[C@@H]4O)ccc3OC2CS)ccc1O` (some centres undefined), the outcome in the test with Mus musculus [1], in the test with Mus musculus [2], in the test with Mus musculus [4], with Hepatocyte [7], in the test with Hepatocyte [8] and with Rattus norvegicus was Active. The values for the Activity result (with Mus musculus [3]; in [5]; in the test on Mus musculus [6]) were “Active; Activity Better Than Silybin”, 67% and “Active; Compound Was More Significant Than Silybin”, respectively.

The record behind these values is ChEMBL document CHEMBL6182935, “Discovery of a Novel Silybin Derivative for the Treatment of Metabolic Dysfunction-Associated Steatohepatitis” (J Med Chem, 2025).
